# Measured values published in US12187717B2, “Compound and use thereof in treating autoimmune diseases” (PARENCHYMA BIOTECH INC., priority 2022, dated 2025).
# Like-named read-outs stand apart in the source and are kept apart here.
# Assays:
# [1] = test system: intestinal epithelial barrier integrity; assay: Mucosal healing with FITC-dextran in DSS-induced inflammatory bowel disease model; format: in vivo, C57BL/6 mice; conditions: 10 mg/kg oral daily, 15th day, 4 hours after FITC-dextran, compared to solvent control
# Protocol: In order to investigate mucosal healing effects of the compounds according to an embodiment of the present invention, inflammatory bowel disease was induced in C57BL/6 mice, and a degree of recovery of intestinal epithelial harrier integrity was assessed by administering Compound 6 as follows. On day 0 of the experiment, a 2.0% DSS solution prepared by dissolving 2.0% DSS in sterile distilled water was given for drinking to C57BL/6 mice (11 weeks old, female, 20±2 g) for 7 days. The 2.0% DSS solution was changed at an interval of 2 days. Sterile distilled water was provided for drinking from the 8th day of the experiment. Body weight and severity index were measured at an interval of 2 days from the 0th day of the experiment, so as to confirm the onset of inflammatory bowel disease. […] 4 hours after oral administration, fluorescence was measured in the serum extracted from the heart (fluorometer, excitation 485490 nm, emission […]).
# [2] = test system: experimental autoimmune encephalomyelitis (EAE); assay: Experimental autoimmune encephalomyelitis (EAE) model of multiple sclerosis; format: in vivo, C57BL/6 mice; conditions: 10 mg/kg oral daily, 15th to 20th days; 21st day; 0-5 stages; solvent control 2.9±1.92
# Protocol: On day 0 of the experiment, myelin oligodendrocyte glycoprotein (MOG) 35-55 peptide (MOG35-55, Peptron) (200 μg), heat killed Mmycobacterium tuberculosis, Difco, Cat No. 231141) (500 μg), and an adjuvant (incomplete freund's adjuvant, Sigma Aldrich, Cat No. F5506) were mixed for 7 minutes to form an emulsion. MOG35-55 emulsion was subcutaneously injected into both flanks of C57BL/6 mice (7-8 weeks old, female), respectively, and then 100 μl of pertussis toxin (Sigma Aldrich, Cat No. P2980) (200 ng) was administered into the tail vein. On the 2nd day of the experiment, an equal amount of pertussis toxin was administered intravenously. […]
# In the compound 6 administration group according to an embodiment of the present invention, 10 mg/kg of Compound 6 per mouse was completely dissolved in an ethanol-Cremophor EL mixture corresponding to 7.5% (v/v) of the administered dose, and then, was diluted in phosphate buffered saline to prepare the final ethanol:Cremophor EL:phosphate buffered saline (0.375:0.375:9.25, v/v/v), followed by oral administration with 200 μl of the prepared solution daily for a total of 6 times from the 15th to 20th days of the experiment. The multiple sclerosis index was visually observed and recorded in the severity index system classified into 0-5 stages. […]
# [3] = Pharmacokinetic parameters after oral or intravenous administration; format: in vivo; conditions: rats; for bioavailability: read-out: Bioavailability (F %); for increase of AUClast compared to Comparative Example 1 / increase of Cmax compared to Comparative Example 1: oral
# Protocol: For rats, an oral administration group was fasted for 16 hours, and an intravenous administration group was subjected to intravenous administration with 10 mL/kg of solution prepared by completely dissolving Compound 6 in an ethanol-Cremophor EL mixture corresponding to 7.5% (v/v) of the administered dose, and then diluting in phosphate buffered saline so as to be the final ethanol:Cremophor EL:phosphate buffered saline (0.375:0.375:9.25, v/v/v), without fasting, at the dose concentration listed in Table 3. The oral administration group was supplied with food about 4 hours after administration. Blood collection was performed on the intravenous administration group after 0.083, 0.5, 1, 2, 4, 8, 24 hours from the administration and on the oral administration group after 0.5, 1, 2, 4, 8, 12, 24 hours from the administration, and plasma was recovered using centrifugation. In the recovered plasma, the drug concentration in the plasma was measured using UHPLC-MS/MS method.
# [4] = target: T1, CYP1A2 (Homo sapiens, UniProt P05177); assay: CYP isoenzyme activity; format: in vitro ADME; conditions: 10 μM
# T1 sequence (P05177 1-516): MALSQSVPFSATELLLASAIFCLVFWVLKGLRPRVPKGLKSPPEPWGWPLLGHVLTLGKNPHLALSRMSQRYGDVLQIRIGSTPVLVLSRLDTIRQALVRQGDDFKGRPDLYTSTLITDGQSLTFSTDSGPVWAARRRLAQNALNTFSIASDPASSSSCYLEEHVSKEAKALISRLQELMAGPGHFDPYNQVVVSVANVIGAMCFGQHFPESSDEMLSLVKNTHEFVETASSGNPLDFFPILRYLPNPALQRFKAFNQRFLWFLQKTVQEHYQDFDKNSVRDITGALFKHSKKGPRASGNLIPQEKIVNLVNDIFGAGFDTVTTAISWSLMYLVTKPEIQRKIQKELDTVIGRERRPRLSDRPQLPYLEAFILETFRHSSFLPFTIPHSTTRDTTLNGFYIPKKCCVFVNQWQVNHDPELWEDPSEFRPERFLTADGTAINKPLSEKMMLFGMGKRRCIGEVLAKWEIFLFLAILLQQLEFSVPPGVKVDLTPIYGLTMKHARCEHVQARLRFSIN
# [5] = target: CYP2D6 (Homo sapiens, UniProt P10635); conditions: 2 days, 10 μM
# Chain of CYP2D6 (P10635 whole entry): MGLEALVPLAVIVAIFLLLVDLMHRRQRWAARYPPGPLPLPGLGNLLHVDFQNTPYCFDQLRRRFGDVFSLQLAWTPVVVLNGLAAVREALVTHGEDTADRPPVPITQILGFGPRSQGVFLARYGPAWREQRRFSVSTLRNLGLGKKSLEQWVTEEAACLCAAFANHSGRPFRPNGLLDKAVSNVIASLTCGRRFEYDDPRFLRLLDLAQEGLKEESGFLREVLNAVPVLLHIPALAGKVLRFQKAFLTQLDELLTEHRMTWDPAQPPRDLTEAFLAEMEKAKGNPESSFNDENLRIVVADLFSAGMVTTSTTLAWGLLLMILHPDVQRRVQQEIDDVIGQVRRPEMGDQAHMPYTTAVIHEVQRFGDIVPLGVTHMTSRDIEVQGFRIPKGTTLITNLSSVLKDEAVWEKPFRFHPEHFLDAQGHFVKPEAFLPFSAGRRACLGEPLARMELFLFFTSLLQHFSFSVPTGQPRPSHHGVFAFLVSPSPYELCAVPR
# [6] = rat, plasma, Intravenous (IV), 1 mg/kg
# [7] = rat, plasma, Oral (PO), 10 mg/kg
# [8] = rat, plasma, Oral (PO), 50 mg/kg
# [9] = Oral (PO), 10 mg/kg (reference dose, dose ratio 1)
# [10] = Oral (PO), 50 mg/kg relative to 10 mg/kg (dose ratio 5)
# [11] = 10 mg/kg vs Comparative Example 1 at 10 mg/kg
# [12] = 50 mg/kg vs Comparative Example 1 at 100 mg/kg
structure (smiles),measurement,setting,value
"O=C(Cc1c[nH]c2ccc(Cl)cc12)Nc1nc2ccc(N3CCOCC3)cc2s1 [Compound 6, 2-(5-chloro-1H-indol-3-yl)-N-(6-morpholinobenzo[d]thiazol-2-yl)acetamide]",Serum FITC-dextran,[1],significantly decreased
same,disease severity index (EAE),[2],0.92±0.58
same,AUC(0-t),[3]; [6],1160 ng·h/mL
same,C0,[3]; [6],1420 ng/mL
same,clearance,[3]; [6],14.4 mL/min/kg
same,half-life,[3]; [6],1.04 h
same,Vd,"[3]; rat, plasma, Intravenous (IV), 1 mg/kg, read-out: Vdss",0.924 L/kg
same,AUC(0-t),[3]; [7],4350 ng·h/mL
same,Cmax,[3]; [7],742 ng/mL
same,Tmax,[3]; [7],2 h
same,half-life,[3]; [7],2 h
same,bioavailability,[3]; [7],37.3%
same,AUC(0-t),[3]; [8],43100 ng·h/mL
same,Cmax,[3]; [8],4590 ng/mL
same,Tmax,[3]; [8],4 h
same,half-life,[3]; [8],3.83 h
same,bioavailability,[3]; [8],73.9%
same,AUClast Ratio,[3]; [9],1.0
same,Cmax ratio,[3]; [9],1.0
same,AUClast Ratio,[3]; [10],9.9
same,Cmax ratio,[3]; [10],6.2
same,increase of AUClast compared to Comparative Example 1,[3]; [11],5.9 times
same,increase of Cmax compared to Comparative Example 1,[3]; [11],11.9 times
same,increase of AUClast compared to Comparative Example 1,[3]; [12],66.8 times
same,increase of Cmax compared to Comparative Example 1,[3]; [12],30.2 times
same,CYP1A2 activity,[4],88.2 % of Control Activity
same,CYP2D6 activity,[5],101.2 % of Control Activity
